The structures appear in SMILES notation.

Data on one molecule can be found in article PMC12700101 (2025).

For assay [1], the system named is Dopamine MAB Cy3–BHQ-2 (DNA, aptamer) ACGCCAGTTTGAAGGTTCGTTCGCAGGTGTGGAGTGACGT
Put plainly: fluorescence melting. The settings on record: 1x PBS, 2 mM MgCl2; derived from two Tm (49.4 ± 0.8, 53.3 ± 0.8); 50 µM dopamine, pH 8.0.

The subject of assay [2] is Dopamine MAB Cy3–BHQ-1 (DNA, aptamer) ACGCCAGTTTGAAGGTTCGTTCGCAGGTGTGGAGTGACGT
Put plainly: fluorescence melting. The settings on record: 1x PBS, 2 mM MgCl2; derived from two Tm (49.5 ± 0.3, 52.7 ± 0.8); 50 µM dopamine, pH 8.0.

Assay [3] has as its system Dopamine DBS Cy3(+T)–IABkFQ (DNA, aptamer) AAATACAACAAGAAAAAACTCTCGGGACGACGTACCAGTTTGAAGGTTCGTTCGCAGGTGTGGAGTGACGTCGTCCC
Description: fluorescence strand-displacement titration. The note with it: 1x PBS, 2 mM MgCl2; apparent; pH 8.0, 25 °C; displaced 42-nt 5'-IABkFQ strand, 4 eq.

The subject of assay [4] is Dopamine DBS Cy3/BHQ-1 (int.) (DNA, aptamer) AAATACAACAAGAAAAAACTCTCGGGACGACGCCAGTTTGAAGGTTCGTTCGCAGGTGTGGAGTGACGTCGTCCC
Put plainly: fluorescence melting. The settings on record: 1x PBS, 2 mM MgCl2; pH 8.0; 50 µM dopamine; derived from two Tm (50.9, 50.4); displacement strand 1:4.

The subject of assay [5] is Dopamine MAB FAM–Dab (DNA, aptamer, dabcyl-5-methyl-dC at 41 (3' end)) ACGCCAGTTTGAAGGTTCGTTCGCAGGTGTGGAGTGACGTC
Put plainly: fluorescence quenching titration (molecular aptamer beacon). The settings on record: 1x PBS, 2 mM MgCl2; apparent; pH 8.0, 25 °C.

Assay [6] deals with Dopamine DBS FAM(+T)/BHQ-1 (DNA, aptamer, 6-FAM-modified dT (click, i6-FAMK) at 33) AAATACAACAAGAAAAAACTCTCGGGACGACGTCCAGTTTGAAGGTTCGTTCGCAGGTGTGGAGTGACGTCGTCCC …. Put plainly: fluorescence melting. The note with it: 1x PBS, 2 mM MgCl2; pH 8.0; 50 µM dopamine; derived from two Tm (49.1, 48.9); displacement strand 1:4.
Assay [7] has as its system Dopamine DBS FAM(+T)/BHQ-1 (term.) (DNA, aptamer, 6-FAM-modified dT (click, i6-FAMK) at 33) AAATACAACAAGAAAAAACTCTCGGGACGACGTCCAGTTTGAAGGTTCGTTCGCAGGTGTGGAGTGACGTCGTCCC
Put plainly: fluorescence melting. The note with it: 1x PBS, 2 mM MgCl2; pH 8.0; 50 µM dopamine; derived from two Tm (48.4, 48.3); displacement strand 1:4.

With `NCCc1ccc(O)c(O)c1`, the Tm in assay [1] was 3.9 °C; in assay [2], 3.2 °C; in assay [4], -0.5 °C; in assay [6] it was -0.2 °C; in assay [7], -0.1 °C. The figures for the Kd in assay [3] and in assay [5] were 41.8 ± 5.0 µM and 3.2 ± 0.2 µM, respectively.
